Measured values as given in patent EP4810052A2, “HCRHR2 SELECTIVE POLYPEPTIDES” (Gubra A/S, priority 2023, dated 2026).
Read-outs that look alike come from different tables or passages of the source. Starred links: 1 amine or outer side, 2 acyl side, 3 side chain; linkers in the order of their positions; H or OH if unused. Non-standard residues stand in square brackets, D forms with d. Residues, ends and D or L forms follow the SMILES beside them. Groups on a side chain read outwards from the residue. *: point of attachment. C20 diacid = O=C(O)CCCCCCCCCCCCCCCCCCC(=O)*; γGlu = O=C(O)[C@H](CCC(=O)[*:2])N[*:1]; NMeI = CC[C@H](C)[C@H](NC)C(=O)O; Nle = CCCC[C@H](N)C(=O)O; Ac5c = NC1(C(=O)O)CCCC1; AEEA = NCCOCCOCC(=O)O; Aib = CC(C)(N)C(=O)O

How the values were obtained:
hCRHR2 = molecular target: T1, hCRHR2 (Homo sapiens, UniProt Q13324); assay: HTRF cAMP assay, determination of hCRHR2 potency (peptide libraries 5 conc., purified peptides 11 conc.); format: cell-based
T1 sequence (Q13324 1-411): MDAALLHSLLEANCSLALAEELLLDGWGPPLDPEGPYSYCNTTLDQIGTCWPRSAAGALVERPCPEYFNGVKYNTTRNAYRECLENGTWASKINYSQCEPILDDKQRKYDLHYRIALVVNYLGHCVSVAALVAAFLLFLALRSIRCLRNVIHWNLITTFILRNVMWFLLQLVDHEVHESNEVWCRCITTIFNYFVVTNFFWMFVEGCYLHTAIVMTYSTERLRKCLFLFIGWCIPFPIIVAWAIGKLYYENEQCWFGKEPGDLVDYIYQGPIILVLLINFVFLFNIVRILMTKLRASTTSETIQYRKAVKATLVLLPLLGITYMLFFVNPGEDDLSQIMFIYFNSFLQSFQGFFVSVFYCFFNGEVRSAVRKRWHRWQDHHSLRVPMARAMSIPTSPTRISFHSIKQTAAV
How it was run: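 Agonist peptides are added to suspended, freshly thawed CHO-K1 cells that stably carry the human receptor. Intracellular cAMP competes with d2-cAMP for a cryptate-tagged antibody, lowering the FRET signal. A variable-slope sigmoid curve is fitted to obtain EC50.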

hCRHR1 = molecular target: T2, hCRHR1 (Homo sapiens, UniProt P34998); assay: HTRF cAMP assay, determination of hCRHR1 potency (peptide libraries 5 conc., purified peptides 11 conc.); format: cell-based
T2 sequence (P34998 24-415): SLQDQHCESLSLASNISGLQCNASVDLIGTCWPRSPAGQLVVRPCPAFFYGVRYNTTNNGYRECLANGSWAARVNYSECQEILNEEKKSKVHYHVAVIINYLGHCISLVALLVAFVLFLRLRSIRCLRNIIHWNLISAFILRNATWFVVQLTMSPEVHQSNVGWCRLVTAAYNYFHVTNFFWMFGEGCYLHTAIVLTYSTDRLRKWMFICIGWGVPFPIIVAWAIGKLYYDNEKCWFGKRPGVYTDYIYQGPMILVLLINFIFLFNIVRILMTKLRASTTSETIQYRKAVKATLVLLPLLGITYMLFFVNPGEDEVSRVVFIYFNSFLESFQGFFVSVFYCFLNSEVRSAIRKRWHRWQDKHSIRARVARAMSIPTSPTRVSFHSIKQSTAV
Description: HTRF (CisBio) cAMP assay: The assay technology has thoroughly been described in the CisBio HTRF cAMP assay Kit manual (# 62AM4PEC). Briefly, time resolved fluorescence technic was applied to measure cAMP. This technic is based on a competitive immunoassay using cryptate-labelled anti-cAMP antibody and d2-labeled cAMP. In the absence of cellular cAMP, the anti-cAMP cryptate conjugate may get into proximity to cAMP-d2 conjugate and energy (FRET) can be transferred from cryptate to d2. CHO-K1 cells stably expressing the human corticotropin-releasing hormone receptor 1 (Eurofins/DiscoverX Cat #95-0047C2 hCRHR1 stable monoclonal cell lines) were used as cells in suspension, brought to life from frozen cell stocks immediately before assay performance. […] Concentration-response evaluation of compounds was performed with 5 concentrations of agonist peptides and EC50 values were calculated by nonlinear regression using sigmoid concentration-response with variable slope. Concentration-response evaluation of compounds was performed with 11 concentrations of agonist peptides and EC50 values were calculated by nonlinear regression using sigmoid concentration-response with variable slope.

[1] = Table 3, matched molecular pairs X^38 L vs Nle, peptide library of Example 4, read-out: hCRHR2 pEC50 (converted)
[2] = Table 3, matched molecular pairs X^38 L vs Nle, peptide library of Example 4, read-out: hCRHR1 pEC50 (converted)

EC50 (hCRHR2; [1]) [nM] | EC50 (hCRHR1; [2]) [nM] | Compound | further results
0.158 | 5010 | CCCC[C@H](NC(=O)[C@@H](NC(=O)[C@H](CCC(=O)O)NC(=O)[C@H](C)NC(=O)[C@H](CC(N)=O)NC(=O)[C@@H](NC(=O)[C@H](CCCCNC(=O)COCCOCCNC(=O)COCCOCCNC(=O)CC[C@H](NC(=O)CC[C@H](NC(=O)CCCCCCCCCCCCCCCCCCC(=O)O)C(=O)O)C(=O)O)NC(=O)[C@H](C)NC(=O)[C@H](CCCNC(=N)N)NC(=O)[C@H](CCC(=O)O)NC(=O)[C@H](CCCNC(=N)N)NC(=O)[C@H](C)NC(=O)[C@H](CO)NC(=O)[C@H](CCC(=O)O)NC(=O)[C@H](C)NC(=O)[C@H](CCCNC(=N)N)NC(=O)[C@H](C)NC(=O)[C@H](CCC(N)=O)NC(=O)[C@H](CCC(=O)O)NC(=O)[C@H](CC(C)C)NC(=O)[C@H](CC(C)C)NC(=O)[C@@H](NC(=O)[C@H](CCC(N)=O)NC(=O)[C@H](CC(C)C)NC(=O)[C@H](CC(C)C)NC(=O)CNC(=O)[C@@H](NC(=O)[C@@H]1CCCN1C(=O)[C@@H](NC(=O)[C@H](CC(=O)O)NC(=O)[C@H](CC(C)C)NC(=O)[C@H](CO)NC(=O)[C@H](CC(C)C)NC(=O)[C@@H](NC(=O)[C@@H](N)[C@@H](C)CC)C(C)C)C(C)C)[C@@H](C)CC)[C@@H](C)CC)[C@@H](C)O)[C@@H](C)CC)C(=O)N[C@@H](C)C(=O)N[C@@H](CCC(=O)O)C(=O)N[C@H](C(N)=O)[C@@H](C)CC [SEQ ID NO: 22] (H-IVLSLDVPIGLLQILLEQARAESARERAK([AEEA-AEEA-γGlu-γGlu-C20 diacid])TNAEI[Nle]AEI-NH2) | –
– | – | CCCC[C@H](NC(=O)[C@@H](NC(=O)[C@H](CCC(=O)O)NC(=O)C(C)(C)NC(=O)[C@H](CC(N)=O)NC(=O)[C@@H](NC(=O)[C@H](CCCCNC(=O)COCCOCCNC(=O)COCCOCCNC(=O)CC[C@H](NC(=O)CC[C@H](NC(=O)CCCCCCCCCCCCCCCCCCC(=O)O)C(=O)O)C(=O)O)NC(=O)[C@H](C)NC(=O)[C@H](CCC(N)=O)NC(=O)[C@H](CCC(=O)O)NC(=O)[C@H](CCCNC(=N)N)NC(=O)[C@H](C)NC(=O)[C@H](C)NC(=O)[C@H](CCCNC(=N)N)NC(=O)[C@H](C)NC(=O)[C@H](CCCNC(=N)N)NC(=O)[C@H](C)NC(=O)[C@H](CCC(N)=O)NC(=O)[C@H](CCC(N)=O)NC(=O)[C@H](CC(C)C)NC(=O)[C@H](CC(C)C)NC(=O)[C@@H](NC(=O)[C@H](CCC(N)=O)NC(=O)[C@H](CC(C)C)NC(=O)[C@H](CC(C)C)NC(=O)CNC(=O)[C@@H](NC(=O)[C@@H]1CCCN1C(=O)[C@@H](NC(=O)[C@H](CC(=O)O)NC(=O)[C@H](CC(C)C)NC(=O)[C@H](CO)NC(=O)[C@H](CC(C)C)NC(=O)[C@@H](NC(=O)[C@@H](NC)[C@@H](C)CC)C(C)C)C(C)C)[C@@H](C)CC)[C@@H](C)CC)[C@@H](C)O)[C@@H](C)CC)C(=O)N[C@@H](C)C(=O)N[C@@H](CCC(=O)O)C(=O)N[C@H](C(N)=O)C(C)C [compound 202] (H-[NMeI]VLSLDVPIGLLQILLQQARARAAREQAK([AEEA-AEEA-γGlu-γGlu-C20 diacid])TN[Aib]EI[Nle]AEV-NH2) | EC50 (hCRHR2; Table 4, library peptides having X^38 = Nle, read-out: hCRHR2 pEC50 (converted)): 0.0251 nM; EC50 (hCRHR1; Table 4, library peptides having X^38 = Nle, read-out: hCRHR1 pEC50 (converted)): 794 nM
0.398 | 25.1 | CCCC[C@H](NC(=O)[C@@H](NC(=O)[C@H](CCC(=O)O)NC(=O)[C@H](C)NC(=O)[C@H](CC(N)=O)NC(=O)[C@@H](NC(=O)[C@H](CCCCNC(=O)COCCOCCNC(=O)COCCOCCNC(=O)CC[C@H](NC(=O)CC[C@H](NC(=O)CCCCCCCCCCCCCCCCCCC(=O)O)C(=O)O)C(=O)O)NC(=O)[C@H](C)NC(=O)[C@H](CCC(N)=O)NC(=O)[C@H](CCC(=O)O)NC(=O)[C@H](CCCNC(=N)N)NC(=O)[C@H](CC(C)C)NC(=O)[C@H](C)NC(=O)[C@H](CCCNC(=N)N)NC(=O)[C@H](C)NC(=O)[C@H](CCCNC(=N)N)NC(=O)[C@H](C)NC(=O)[C@H](CCC(N)=O)NC(=O)[C@H](CCC(=O)O)NC(=O)[C@H](CC(C)C)NC(=O)[C@H](CC(C)C)NC(=O)[C@@H](NC(=O)[C@H](CCC(N)=O)NC(=O)[C@H](CC(C)C)NC(=O)[C@H](CC(C)C)NC(=O)CNC(=O)[C@@H](NC(=O)[C@@H]1CCCN1C(=O)[C@@H](NC(=O)[C@H](CC(=O)O)NC(=O)[C@H](CC(C)C)NC(=O)[C@H](CO)NC(=O)[C@H](CC(C)C)NC(=O)[C@@H](NC(=O)[C@@H](N)[C@@H](C)CC)C(C)C)C(C)C)[C@@H](C)CC)[C@@H](C)CC)[C@@H](C)O)[C@@H](C)CC)C(=O)N[C@@H](C)C(=O)N[C@@H](CCC(=O)O)C(=O)N[C@H](C(N)=O)C(C)C [SEQ ID NO: 40] (H-IVLSLDVPIGLLQILLEQARARALREQAK([AEEA-AEEA-γGlu-γGlu-C20 diacid])TNAEI[Nle]AEV-NH2) | –
0.398 | 1000 | CCCC[C@H](NC(=O)[C@@H](NC(=O)[C@H](CCC(=O)O)NC(=O)[C@H](C)NC(=O)[C@H](CC(N)=O)NC(=O)[C@@H](NC(=O)[C@H](CCCCNC(=O)COCCOCCNC(=O)COCCOCCNC(=O)CC[C@H](NC(=O)CC[C@H](NC(=O)CCCCCCCCCCCCCCCCCCC(=O)O)C(=O)O)C(=O)O)NC(=O)[C@H](C)NC(=O)[C@H](CCC(N)=O)NC(=O)[C@H](CCC(=O)O)NC(=O)[C@H](CCCNC(=N)N)NC(=O)[C@H](C)NC(=O)[C@H](C)NC(=O)[C@H](CCC(=O)O)NC(=O)[C@H](C)NC(=O)[C@H](CCCNC(=N)N)NC(=O)[C@H](C)NC(=O)[C@H](CCC(N)=O)NC(=O)[C@H](CCC(=O)O)NC(=O)[C@H](CC(C)C)NC(=O)[C@H](CC(C)C)NC(=O)[C@@H](NC(=O)[C@H](CCC(N)=O)NC(=O)[C@H](CC(C)C)NC(=O)[C@H](CC(C)C)NC(=O)CNC(=O)[C@@H](NC(=O)[C@@H]1CCCN1C(=O)[C@@H](NC(=O)[C@H](CC(=O)O)NC(=O)[C@H](CC(C)C)NC(=O)[C@H](CO)NC(=O)[C@H](CC(C)C)NC(=O)[C@@H](NC(=O)[C@@H](N)[C@@H](C)CC)C(C)C)C(C)C)[C@@H](C)CC)[C@@H](C)CC)[C@@H](C)O)[C@@H](C)CC)C(=O)N[C@@H](C)C(=O)N[C@@H](CCC(=O)O)C(=O)N[C@H](C(N)=O)[C@@H](C)CC [SEQ ID NO: 24] (H-IVLSLDVPIGLLQILLEQARAEAAREQAK([AEEA-AEEA-γGlu-γGlu-C20 diacid])TNAEI[Nle]AEI-NH2) | –
– | – | CC[C@H](C)[C@H](N)C(=O)N[C@H](C(=O)N[C@@H](CC(C)C)C(=O)N[C@@H](CO)C(=O)N[C@@H](CC(C)C)C(=O)N[C@@H](CC(=O)O)C(=O)NC1(C(=O)N2CCC[C@H]2C(=O)N[C@H](C(=O)NCC(=O)N[C@@H](CC(C)C)C(=O)N[C@@H](CC(C)C)C(=O)N[C@@H](CCC(N)=O)C(=O)N[C@H](C(=O)N[C@@H](CC(C)C)C(=O)N[C@@H](CC(C)C)C(=O)N[C@@H](CCC(=O)O)C(=O)N[C@@H](CCC(N)=O)C(=O)N[C@@H](C)C(=O)N[C@@H](CCCNC(=N)N)C(=O)N[C@@H](C)C(=O)N[C@@H](CCCNC(=N)N)C(=O)N[C@@H](CCC(N)=O)C(=O)N[C@@H](C)C(=O)N[C@@H](CCCNC(=N)N)C(=O)N[C@@H](CCC(=O)O)C(=O)N[C@@H](CCC(N)=O)C(=O)N[C@@H](C)C(=O)N[C@@H](CCCCNC(=O)COCCOCCNC(=O)COCCOCCNC(=O)CC[C@H](NC(=O)CC[C@H](NC(=O)CCCCCCCCCCCCCCCCCCC(=O)O)C(=O)O)C(=O)O)C(=O)N[C@H](C(=O)N[C@@H](CC(N)=O)C(=O)N[C@@H](C)C(=O)N[C@@H](CCC(=O)O)C(=O)N[C@H](C(=O)N[C@@H](CC(C)C)C(=O)N[C@@H](C)C(=O)N[C@@H](CCC(=O)O)C(=O)N[C@H](C(N)=O)C(C)C)[C@@H](C)CC)[C@@H](C)O)[C@@H](C)CC)[C@@H](C)CC)CCCC1)C(C)C [compound 78] (H-IVLSLD[Ac5c]PIGLLQILLEQARARQAREQAK([AEEA-AEEA-γGlu-γGlu-C20 diacid])TNAEILAEV-NH2) | EC50 (hCRHR2; library peptides, matched molecular pairs L vs Nle in position X^38, read-out: Potency hCRHR2 pEC50 (converted)): 0.398 nM; EC50 (hCRHR1; library peptides, matched molecular pairs L vs Nle in position X^38, read-out: Potency hCRHR1 pEC50 (converted)): 7.94 nM
